# Reference: PMC6934184, “Selective DNA-PKcs inhibition extends the therapeutic index of localized radiotherapy and chemotherapy” (The Journal of Clinical Investigation, 2019)
# Target: T1, GRK7 (Homo sapiens, UniProt Q8WTQ7)
# T1 construct: purchased Thermo Fisher Scientific (Life Technologies) SelectScreen
# Assay: SelectScreen Z'LYTE
# Format: biochemical
# Summary of the method: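 Percent values come from Thermo SelectScreen profiling of NU5455, combining activity and binding assays. CSF1R was run in Z'LYTE format at Km app ATP, and CAMK1 in Adapta format with ATP listed at 10.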
# T1 sequence (Q8WTQ7 whole entry): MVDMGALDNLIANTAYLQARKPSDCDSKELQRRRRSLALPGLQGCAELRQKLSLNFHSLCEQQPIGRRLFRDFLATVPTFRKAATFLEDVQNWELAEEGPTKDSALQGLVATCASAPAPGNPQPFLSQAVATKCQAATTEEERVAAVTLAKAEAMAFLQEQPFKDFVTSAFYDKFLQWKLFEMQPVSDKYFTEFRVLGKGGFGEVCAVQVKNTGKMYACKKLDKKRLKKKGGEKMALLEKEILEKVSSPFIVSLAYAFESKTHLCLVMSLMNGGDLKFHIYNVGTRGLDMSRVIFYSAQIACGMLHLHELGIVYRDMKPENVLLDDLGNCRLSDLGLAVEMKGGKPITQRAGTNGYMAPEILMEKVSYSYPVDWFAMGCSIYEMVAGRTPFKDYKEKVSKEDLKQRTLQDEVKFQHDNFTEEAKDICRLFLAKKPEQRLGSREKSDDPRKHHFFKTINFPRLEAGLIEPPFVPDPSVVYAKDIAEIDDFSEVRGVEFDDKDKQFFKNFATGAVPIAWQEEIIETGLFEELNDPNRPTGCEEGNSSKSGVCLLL
smiles,measurement,value
CN(C(=O)CN1CCOCC1)c1ccc2sc3c(-c4cccc5c(=O)cc(N6CC7CCC(C6)O7)oc45)cccc3c2c1 [NU5455],inhibition at 1 µM,-3%
